Assay results published in US11111218B2, “Crystalline form of 5-amino-2,3-dihydrophthalazine-1,4-dione” (METRIOPHARM AG, priority 2016, dated 2021).

Conditions: TG-DSC
Source text: Upper trace: Mass loss determined by TG. Lower trace: Heat flow determined by DSC

Nc1cccc2c(=O)[nH][nH]c(=O)c12 [Form II, 5-amino-2,3-dihydrophthalazine-1,4-dione]
thermal stability up to (crystalline solid): up to 320±1 °C
solid state transformation to other forms (until thermal degradation of the crystalline compound sets in): no solid state transformation to other forms is observed
